Article PMC11645267, “Novel pharmacologic inhibition of lysine-specific demethylase 1 as a potential therapeutic for glioblastoma” (Cancer Gene Therapy, 2024)

How the values were obtained:
glioma stem cells (GSCs) = test: Cell growth / viability in glioma stem cells; format: cell-based
Source text: Inhibition of LSD1 can effectively suppress stem-like tumor-propagating cells in human glioma.
Supplementary materials and methods
RNA-seq data of malignant glioma (n=157) and normal tissue (n=5) were obtained from TCGA (http://xena.ucsc.edu/).
Cell lines and culture conditions
Glioblastoma cell line, LN229, was obtained from the American Type Culture Collection (ATCC, Manassas, VA, USA). Normal fibroblast cell lines TIG3 and WI-38, TM31 (low grade glioma) were obtained from the RIKEN Bioresource Research Center (Tsukuba, Japan). Onda10 and KINGS1 (low grade glioma) cell lines were obtained from the Japanese Collection of Research Bioresources (Ibaraki, Japan). F3 is utilized as a neural stem cell line{Kim, 2004 #1412}{Natsume, 2013 #1009}. All cells were maintained in DMEM medium (Wako, Osaka, Japan) containing 5% fetal bovine serum (FBS, Thermo Fisher Scientific, Waltham, MA, USA) and 1% penicillin-streptomycin (Wako). Glioma stem cell lines (GSC1228, GSC316, and GSC222) were established previously{Natsume, 2013 #1009}{Katsushima, 2016 #1156}. […]
For the cell proliferation assay, cells at a density of 1 × 10^5 cells per well were seeded before treatment with LSD1 inhibitors. Cell proliferation was measured after 4 days using a Cell Counting Kit 8 (Dojindo, Kumamoto, Japan) according to the manufacturer ’s […]

LSD2 = molecular target: T1, LSD2 (Homo sapiens, UniProt Q8NB78); test: Enzyme inhibition assay (in vitro peroxidase assay) against LSD2
T1 sequence (Q8NB78 1-822): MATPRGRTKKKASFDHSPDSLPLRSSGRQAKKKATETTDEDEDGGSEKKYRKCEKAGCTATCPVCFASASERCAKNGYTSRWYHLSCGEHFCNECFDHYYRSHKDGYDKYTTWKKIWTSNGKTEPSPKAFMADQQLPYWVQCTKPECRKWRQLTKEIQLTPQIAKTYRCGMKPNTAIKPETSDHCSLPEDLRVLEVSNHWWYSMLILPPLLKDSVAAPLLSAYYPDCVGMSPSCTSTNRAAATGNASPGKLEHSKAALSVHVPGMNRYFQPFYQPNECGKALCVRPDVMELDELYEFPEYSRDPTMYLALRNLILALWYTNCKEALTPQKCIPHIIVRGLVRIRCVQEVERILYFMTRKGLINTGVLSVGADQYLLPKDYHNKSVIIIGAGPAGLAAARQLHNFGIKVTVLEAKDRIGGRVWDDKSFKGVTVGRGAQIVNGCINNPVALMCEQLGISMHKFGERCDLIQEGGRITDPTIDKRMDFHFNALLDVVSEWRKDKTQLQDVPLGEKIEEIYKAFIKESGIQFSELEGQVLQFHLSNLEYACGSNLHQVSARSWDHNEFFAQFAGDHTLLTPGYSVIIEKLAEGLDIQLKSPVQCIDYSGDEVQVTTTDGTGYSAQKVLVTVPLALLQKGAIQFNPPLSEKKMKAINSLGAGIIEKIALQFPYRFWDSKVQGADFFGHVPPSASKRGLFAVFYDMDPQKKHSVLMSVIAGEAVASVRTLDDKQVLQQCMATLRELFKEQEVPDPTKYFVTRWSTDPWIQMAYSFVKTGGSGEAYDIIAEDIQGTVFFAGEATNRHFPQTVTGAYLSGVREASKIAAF
Procedure: Enzyme inhibition assays against LSD1, LSD2, MAO-A, and MAO-B were performed as previously described [25]. Technical replicates, n = 3.

IC50 (glioma stem cells (GSCs); mean over glioma stem cells, read-out: mean half-maximal inhibitory concentration (IC50), cell growth in GSCs): 13.8 µM
Ki (LSD2): > 250 µM
Inhibition of LSD2 (in words) (LSD2; in vitro peroxidase assay): not inhibited
SMILES: NC1CCC(NC2CC2c2cc(F)cc(F)c2OCc2ccccc2)CC1 (stereo not shown) [S2172]
viability at 5 µM (glioma stem cells (GSCs); GSC cells, 5 μM, read-out: viable cells): < 80%
